Laboratory results published in paper PMC12040169 (PLOS Biology, 2025).

Assay: in vitro
Conditions: human, hela cells, % viability

| Compound | viability at 28.5 h, 10 µM [%] |
| --- | --- |
| Cc1cc(Cl)c(S(=O)(=O)N2CC(C)OC(C)C2)cc1OCC(N)=O (stereo not shown) [CBK266452] | 109 |
| O=C(CSc1nc2[nH]ncc2c(=O)n1-c1ccccc1)Nc1ccc(F)c(Cl)c1 [CBK266453] | 97.6 |
| O=C(CC1NCCNC1=O)Nc1cccc(Cl)c1 (stereo not shown) [CBK266454] | 105 |
| O=C(Nc1cc(Cl)ccc1C(=O)O)c1ccc2c(c1)C(=O)N(Cc1cccnc1)C2=O [CBK266455] | 89.9 |
| Cc1cc(NS(=O)(=O)c2cc(OCC(N)=O)c(C)cc2Cl)no1 [CBK266456] | 103 |
| Cc1ccc(-c2noc(CN3CCN(c4ccccn4)CC3)n2)cc1 [CBK266457] | 95.7 |
| COCCNS(=O)(=O)c1cc(OCC(N)=O)c(C)cc1Cl [CBK266461] | 99.3 |
| Cc1cc(N2C(=O)c3ccc(Oc4ccc5c(c4)C(=O)N(c4cc(C)on4)C5=O)cc3C2=O)no1 [CBK266463] | 85.8 |
| Cc1ccc(Nc2nc(N)nc(CSc3nnc(-c4ccncc4)o3)n2)cc1 [CBK266464] | 97.7 |
| CCN(CC)CCN1C(=O)C(O)=C(C(=O)c2ccc3c(c2)OCO3)C1c1cccnc1 (stereo not shown) [CBK266465] | 99.6 |
| Cc1ccc(Nc2nc(N)nc(CSc3nccn3C)n2)cc1 [CBK266468] | 113 |
| O=C(CSc1nc2ccccc2c(=O)[nH]1)NCCO [CBK266469] | 96.2 |
| O=C(CSc1ncnc2scc(-c3ccc(Cl)cc3)c12)Nc1nsc(-c2ccccc2)n1 [CBK266473] | 96.6 |
| COc1ccc(C(=O)C2=C(O)C(=O)N(CCN(C)C)C2c2cccc([N+](=O)[O-])c2)cc1Cl (stereo not shown) [CBK266474] | 102 |
| NS(=O)(=O)c1ccc(CCNc2ncnc3c2c(-c2ccccc2)cn3-c2ccc(F)cc2)cc1 [CBK266478] | 92 |
| COc1ccc(S(=O)(=O)NCCN2CCOCC2)c(C)c1C [CBK266479] | 99.4 |
| Cc1cc(C)nc(NC2=NCCN2C(=S)Nc2ccccc2)n1 [CBK266481] | 95.7 |
| Cc1ccc(OCc2nnc(SCC(=O)c3ccc(Br)cc3)n2N)cc1 [CBK266482] | 99.5 |
| O=C(CSc1ncnc2sc3c(c12)CCC3)Nc1nsc(-c2ccc(Cl)cc2)n1 [CBK266484] | 118 |
| O=C(O)c1ccc(NCc2ccccc2OCc2ccc(F)cc2)cc1 [CBK266487] | 101 |
| COc1ccc(NC(=O)CC2NC3CCCCC3NC2=O)cc1 (stereo not shown) [CBK266488] | 89.7 |
| O=C(O)C1CCCCC1c1nnc(S)[nH]1 (stereo not shown) [CBK266490] | 96.4 |

| Compound | viability at 28.5 h, 10 µM [%] |
| --- | --- |
| COc1ccc(CNS(=O)(=O)c2cc(OCC(N)=O)c(C)cc2Cl)cc1 [CBK266495] | 110 |
| CN(C)S(=O)(=O)N1CCN(c2ccc([N+](=O)[O-])c(NCCc3ccccc3)c2)CC1 [CBK266498] | 102 |
| CCOC(=O)c1c(NC(=O)CSc2ccc(F)cc2)sc2c1CCCC2 [CBK266506] | 95.9 |
| Cc1cc(C)nc(N/C(=N/C(=O)CCN2C(=O)c3ccccc3C2=O)Nc2cccc(Cl)c2)n1 [CBK266507] | 97 |
| CC(C)(C)c1cc(CN)c(C(=O)O)o1 [CBK266510C] | 94.3 |
| Cc1nc2ccc(NC(=O)N3CCC(c4ccccc4)C3)cc2s1 (stereo not shown) [CBK266512] | 98.8 |
| Cc1ccc(S(=O)(=O)NC(C)C(=O)NCc2ccco2)cc1 (stereo not shown) [CBK266514] | 109 |
| Cc1c(C(=O)C2=C(O)C(=O)N(CCCN(C)C)C2c2ccccn2)cnn1-c1ccccc1 (stereo not shown) [CBK266516] | 100 |
| Cc1nnc(SCC(=O)NC(C)(C)C)n1NCc1cccc(Br)c1 [CBK266517] | 101 |
| COc1cc(C)c(Cl)c(C)c1S(=O)(=O)NCc1ccc2c(c1)OCO2 [CBK266518] | 96 |
| COc1ccc(S(=O)(=O)NCCCN2CCOCC2)c(C)c1C [CBK266519] | 110 |
| Cc1nnc(SCC(=O)Nc2nsc(-c3ccc(Cl)cc3)n2)s1 [CBK266525] | 91.5 |
| CCS(=O)(=O)n1nc(-c2ccc(OC)cc2)nc1SC [CBK266526] | 103 |
| O=C(/C=C/c1cn(-c2ccccc2)nc1-c1cc2ccccc2oc1=O)NCc1ccccc1 [CBK266530] | 100 |
| O=C(CSc1ccc(Cl)cc1)Nc1cc(C(=O)O)cc(C(=O)O)c1 [CBK266531] | 98.8 |
| COc1ccccc1NC(=O)c1ccc(-c2nnc(-c3ccccc3)o2)cc1 [CBK266533] | 107 |
| Cc1ccc2nc(NCCC(=O)O)nc(-c3ccccc3)c2c1 [CBK266537] | 97.4 |
| COc1ccc(OCc2nn(-c3nc4ccccc4s3)c(N)c2-c2ccccc2)cc1 [CBK266539] | 98.5 |
| O=C(Nc1ccc(O)cc1C(=O)O)c1ccc2c(c1)C(=O)N(Cc1ccccc1)C2=O [CBK266540] | 88.7 |
| CC(Oc1ccc(Cl)cc1Cl)C(=O)Nc1ccc(OCC(=O)O)cc1 (stereo not shown) [CBK266542] | 98.8 |
| Cc1c(C(=O)C2=C(O)C(=O)N(Cc3cccnc3)C2c2cccnc2)cnn1-c1ccccc1 (stereo not shown) [CBK266543] | 105 |
| COc1cc(NC(=O)c2ccc3c(c2)C(=O)N(Cc2ccccc2)C3=O)c(C(=O)O)cc1OC [CBK266544] | 106 |

| Compound | viability at 28.5 h, 10 µM [%] |
| --- | --- |
| CC(=O)Nc1ccc(S(=O)(=O)N2CCN(S(=O)(=O)N(C)C)CC2)cc1 [CBK266545] | 95.9 |
| COc1ccc(NC(=O)CCCSc2nc(N)c3c(C)c(C)sc3n2)cc1 [CBK266547] | 105 |
| CCOc1ccccc1Nc1nc(N)nc(CN2CCCCC2C)n1 (stereo not shown) [CBK266548] | 105 |
| Cc1ccc(S(=O)(=O)N(C)C)cc1NC(=O)C12CCC(C)(C(=O)C1)C2(C)C (stereo not shown) [CBK266551] | 108 |
| CCOC(=O)c1cc(NC(=O)CSc2nc3ccccc3[nH]2)ccc1Cl [CBK266557] | 99.8 |
| CC1(C)CC(NC(=O)C23CCC(C)(c4nc5ccccc5nc42)C3(C)C)CC(C)(C)N1 (stereo not shown) [CBK266559] | 99.3 |
| Cc1cc(Cl)c(S(=O)(=O)Nc2ccc(C#N)cc2)cc1OCC(N)=O [CBK266560] | 112 |
| Cc1cc(C)nc(N(C#N)CC(=O)c2ccc(Br)cc2)n1 [CBK266562] | 91.3 |
| Cn1c(CSCc2ccccc2)nnc1SCC(=O)c1ccc(Br)cc1 [CBK266565] | 94.9 |
| O=C(CSC1c2ccccc2Oc2ccccc21)Nc1cccc(C(=O)O)c1 [CBK266566] | 97.9 |
| CCOC(=O)c1c(NC(=O)CSc2n[nH]c(N)n2)sc2c1CCCCC2 [CBK266569] | 101 |
| O=c1c(-c2ccco2)[n+]([O-])c2ccccc2n1OCc1ccccn1 [CBK266570] | 91.8 |
| NS(=O)(=O)c1ccc(NC(=O)c2ccc(NC(=O)C3COc4ccccc4O3)cc2)cc1 (stereo not shown) [CBK266573] | 101 |
| O=C1c2ccc(-c3ccc4c(c3)C(=O)N(Cc3ccco3)C4=O)cc2C(=O)N1Cc1ccco1 [CBK266578] | 93.3 |
| O=C(NCCOc1ccccc1Cc1ccccc1)c1cncc(Br)c1 [CBK266581] | 103 |
| Cc1cc(Cl)c(S(=O)(=O)Nc2ccc(Oc3ccccc3)cc2)cc1OCC(N)=O [CBK266583] | 99.8 |
| CCOc1ccc(C(=O)C2=C(O)C(=O)N(CCN(C)C)C2c2cccnc2)cc1Cl (stereo not shown) [CBK266585] | 96.5 |
| Oc1ccc(NCc2ccc(OCc3cccs3)cc2)cc1 [CBK266586] | 89 |
| O=C(O)c1ccc(NC(=O)c2cn(-c3ccccc3)nc2-c2cc3ccccc3o2)cc1 [CBK266587C] | 106 |
| CCCN1CCN(c2ncnc3scc(C4COc5ccccc5O4)c23)CC1 (stereo not shown) [CBK266590] | 102 |
| O=c1c2cn[nH]c2nc(SCc2ccc3c(c2)OCCO3)n1-c1ccccc1 [CBK266593] | 91.8 |
| COc1cccc(CNCCO)c1OCc1ccccc1F [CBK266594C] | 104 |

| Compound | viability at 28.5 h, 10 µM [%] |
| --- | --- |
| COc1cc(CNc2ccc3[nH]c(=O)[nH]c3c2)cc(Br)c1OCC(=O)NC(C)(C)C [CBK266596] | 57 |
| NC(=O)C1(N2CCCCC2)CCN(C2CC(=O)N(Cc3ccc(N4CCCC4=O)cc3)C2=O)CC1 (stereo not shown) [CBK266598] | 102 |
| COc1cccc2cc(C(=O)C3=C(O)C(=O)N(CCN4CCOCC4)C3c3cccc(Cl)c3)oc12 (stereo not shown) [CBK266599] | 100 |
| Cc1sc2nc(SCC(=O)Nc3ccc(S(N)(=O)=O)cc3)n(-c3ccccc3)c(=O)c2c1C [CBK266600] | 108 |
| CCOC(=O)CSc1nc2ccc(I)cc2c(=O)n1Cc1ccccc1 [CBK266602] | 107 |
| Cc1ccc(OCc2nnc(SCC(=O)O)n2N)cc1 [CBK266603] | 95.8 |
| O=C(C1=C(O)C(=O)N(CCCN2CCOCC2)C1c1ccccn1)c1ccccc1 (stereo not shown) [CBK266604] | 93.4 |
| OCCNc1nc(Nc2ccc(O)cc2)nc2ccccc12 [CBK266606C] | 97.3 |
| N#Cc1c(O)nc(SCC(=O)Nc2ccc(Oc3ccccc3)cc2)nc1-c1ccccc1 [CBK266607] | 118 |
| C=CCn1c(COc2cccc3ccc(C)nc23)nnc1SC [CBK266608] | 94.2 |
| Cc1ccc(S(=O)(=O)NCCCO)cc1C(=O)O [CBK266610] | 89.7 |
| COc1ccc(CNC(=O)CSc2nnc(-c3ccncc3)n2C)cc1 [CBK266613] | 95 |
| C=CCOc1ccc(-c2nc3s/c(=C4\C(=O)N(Cc5ccccc5F)c5ccccc54)c(=O)n3n2)cc1 [CBK266615] | 108 |
| C#CCOc1cc(Br)c(/C=C(/C#N)c2ccc([N+](=O)[O-])cc2)cc1OCC [CBK266617] | 104 |
| Cn1cnnc1Sc1cc(N2CCN(S(=O)(=O)c3ccc(Cl)c(Cl)c3)CC2)ccc1[N+](=O)[O-] [CBK266618] | 98.3 |
| COc1cc(C=O)ccc1OC(=O)c1nsc(Cl)c1Cl [CBK266619] | 89.1 |
| O=C(CSc1nnc(-c2ccncc2)n1-c1ccccc1)Nc1ccc([N+](=O)[O-])cc1 [CBK266620] | 96.3 |
| COc1ccc(OC)c(NC(=O)CSc2nnc(-c3ccncc3)n2C)c1 [CBK266623] | 103 |
| O=C(Nc1ccc(S(=O)(=O)Nc2cncs2)cc1)c1ccc(-c2cccc(C(F)(F)F)c2)o1 [CBK266625] | 89 |
